Test results: patent US20210121527A1, “METHODS OF TREATING MINIMAL RESIDUAL CANCER” (ICAHN SCHOOL OF MEDICINE AT MOUNT SINAI, priority 2018, published 2021)

Tests used:
PERK = molecular target: T1, PERK (Mus musculus, UniProt Q9Z2B5); test: IHC of P-PERK and P-eIF2α in tissues of treated MMTV-HER2 mice; format: in vivo; settings: 50 mpk i.p. daily, two weeks
T1 construct: from tissue; host or cells: mammary gland and pancreas sections of MMTV-HER2 (FVB/N-Tg(MMTVneu)) female mice
Method: Mice, tumor growth, and tissue processing: The FVB/N-Tg (MMTVneu) mouse strain was obtained from Jackson Laboratories (Sacramento, Calif.). […] Before being used in any experiment, females underwent one round of pregnancy and at least two weeks of no lactation after weaning. Females between 24-32 weeks of age were injected intraperitoneally with vehicle (90% corn oil, 10% ethanol) or LY4 (50 mpk) daily, for two weeks. For the combination treatment, females 24-32 weeks of age were treated daily by oral gavage with Abemaciclib (50 mpk) for 4 weeks before starting the treatment described earlier with LY4. Tumor volumes were measured using the formula (Dxd^2)/2, where D is the longest and d is the shortest diameter. For CTC count, animals were anesthetized and whole blood was extracted by cardiac puncture. Mammary glands, lungs, and tumors were collected and fixed in 10% buffered formalin overnight before paraffin embedding. The bone marrow from the two lower limbs was flushed with a 26 G needle and further processed by Ficoll density gradient centrifugation. For CTC as well as for DTC detection in bone marrow, tissues were depleted of mature hematopoietic cells by anti-mouse antibody-labeled magnetic bead separation (Miltenyi Biotec, San Diego, Calif.) before fixation in formalin for 20 minutes at 4° C. […]

[1] = tested on: HER2 in MCF10A-HER2 cells; test: HER2 signaling Western blot and surface biotinylation/endocytosis assays; format: cell-based, human; settings: 2 μM
Description: Immunoblot analysis: Cells were lysed in RIPA buffer and protein analyzed by immunoblotting as described previously (Ranganathan et al., “Functional Coupling of p38-Induced Up-Regulation of BiP and Activation of RNA-Dependent Protein Kinase-Like Endoplasmic Reticulum Kinase to Drug Resistance of Dormant Carcinoma Cells,” Cancer Res. 66:1702-1711 (2006), which is hereby incorporated by reference in its entirety). Membranes were blotted using the additional following antibodies: P-PERK (T982) (Tenkerian et al., “mTORC2 Balances AKT Activation and eIF2alpha Serine 51 Phosphorylation to Promote Survival Under Stress,” Mol. Cancer Res. 13:1377-1388 (2015), which is hereby incorporated by reference in its entirety), PERK (Santa Cruz, Dallas, Tex.), P-EGFR(Y1148), EGFR, P-AKT(S473), P-S6 (S235/236) (Cell signaling, Danvers, Mass.), GAPDH (Millipore, Darmstadt, Germany), and β-Tubulin (Abcam, Cambridge, Mass.). For induction of ER stress, MCF10A-HER2 cells were plated in low adhesion plates for 24 hours before collection.
Cell surface biotinylation and endocytosis assay: For cell surface biotinylation, Pierce cell surface protein isolation kit was used following manufacturer's instructions with minor changes. Briefly, MCF10A-HER2 cells were serum- and EGF-starved and treated+/−LY4 for 24 hours before being stimulated with +/−EGF (100 ng/ml) for 20′. Then, cells were washed with ice-cold PBS and surface proteins biotinylated for 30 minutes at 4° C. After quenching, cells were harvested and lysed using RIPA buffer. Protein lysates were incubated with NeutrAvidin agarose beads and the bound proteins were released by incubation with SDS-PAGE sample buffer containing DTT (50 mM). For endocytosis assays (Cihil et al., “The Cell-Based L-Glutathione Protection Assays to Study Endocytosis and Recycling of Plasma Membrane Proteins,” J. Vis. Erp. e50867 (2013), which is hereby incorporated by reference in its entirety), cells were treated similarly but before treatment with EGF cell surface proteins were biotinylated. After 20 minute incubation+/−EGF (100 ng/ml) at 37° C. […]

T1 sequence (Q9Z2B5 29-1114): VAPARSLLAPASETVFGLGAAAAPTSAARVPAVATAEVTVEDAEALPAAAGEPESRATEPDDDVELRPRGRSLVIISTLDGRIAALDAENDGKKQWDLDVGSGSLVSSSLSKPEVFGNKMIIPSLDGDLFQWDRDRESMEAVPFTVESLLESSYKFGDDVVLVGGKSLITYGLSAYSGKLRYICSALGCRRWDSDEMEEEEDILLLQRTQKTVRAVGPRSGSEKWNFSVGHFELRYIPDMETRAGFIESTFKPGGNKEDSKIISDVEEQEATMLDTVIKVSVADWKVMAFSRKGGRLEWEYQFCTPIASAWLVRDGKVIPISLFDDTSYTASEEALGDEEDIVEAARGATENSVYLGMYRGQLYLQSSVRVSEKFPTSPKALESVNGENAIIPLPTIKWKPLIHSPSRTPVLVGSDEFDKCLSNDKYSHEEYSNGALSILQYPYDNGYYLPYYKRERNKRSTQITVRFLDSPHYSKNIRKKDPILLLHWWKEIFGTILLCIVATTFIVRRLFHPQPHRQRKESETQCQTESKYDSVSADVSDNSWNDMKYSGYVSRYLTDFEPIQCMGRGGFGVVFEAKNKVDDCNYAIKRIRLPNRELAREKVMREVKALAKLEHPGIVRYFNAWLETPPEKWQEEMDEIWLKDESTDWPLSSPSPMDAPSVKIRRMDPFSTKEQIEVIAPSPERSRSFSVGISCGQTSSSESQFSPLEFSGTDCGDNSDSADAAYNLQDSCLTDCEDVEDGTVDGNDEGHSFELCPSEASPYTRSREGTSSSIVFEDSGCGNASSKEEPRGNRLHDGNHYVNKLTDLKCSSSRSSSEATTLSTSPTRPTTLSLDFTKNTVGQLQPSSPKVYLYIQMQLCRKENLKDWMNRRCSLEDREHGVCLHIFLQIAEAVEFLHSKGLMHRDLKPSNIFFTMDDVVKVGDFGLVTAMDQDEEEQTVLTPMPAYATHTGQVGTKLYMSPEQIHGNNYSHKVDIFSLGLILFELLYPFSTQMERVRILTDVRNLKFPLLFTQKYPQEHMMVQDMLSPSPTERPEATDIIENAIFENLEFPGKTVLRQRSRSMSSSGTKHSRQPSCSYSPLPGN

## Cc1cc(NC(=O)[C@H](O)c2cc(F)cc(F)c2)ccc1-c1cnc(N)c(C(=O)NC(C)C)c1 [LY4, 2-amino-5-[4-[[(2R)-2-(3,5-difluorophenyl)-2-hydroxy-acetyl]amino]-2-methyl-phenyl]-N-isopropyl-pyridine-3-carboxamide]
PERK
  P-PERK and P-eIF2α levels in mammary gland ducts and pancreatic tissue: significant decrease in P-PERK and P-eIF2α levels
[1]
  P-HER2 and total HER2 on the cell surface (surface biotinylation): decreased the amount of P-HER2 and total HER2 in the cell surface
  endocytosed phospho-HER2 and total HER2 (reversible surface biotinylation): increasing endocytosed phospho-HER2 and total HER2
[1]; starved cells +/- EGF 100 ng/ml, 15 minutes
  P-EGFR, P-HER2, P-AKT, P-S6, P-ERK1/2 levels (Western blot): decreased both the basal and EGF-induced levels of P-EGFR and P-HER2
